Reference: ChEMBL document CHEMBL3885881, “DrugMatrix”

Organism: Rattus norvegicus
Assay: DrugMatrix - Regimen: Daily Repeat
Format: toxicity, organism-based, Sprague-Dawley
Design: regimen Daily Repeat, gender Male, age 6-8 weeks
Settings: in vivo, po, route oral GAVAGE, vehicle 100 % WATER; for ABSOLUTE BASOPHIL / ABSOLUTE EOSINOPHIL / ABSOLUTE LYMPHOCYTE / ABSOLUTE MONOCYTE / ABSOLUTE SEGMENTED NEUTROPHIL / BASOPHIL / EOSINOPHIL / ERYTHROCYTE COUNT / HEMATOCRIT / HEMOGLOBIN / LEUKOCYTE COUNT / LYMPHOCYTE / MEAN CORPUSCULAR HEMOGLOBIN / MEAN CORPUSCULAR HEMOGLOBIN CONCENTRATION / MEAN CORPUSCULAR VOLUME / MONOCYTE / NEUTROPHIL / NUCLEATED RED BLOOD CELLS / PLATELET COUNT: tissue Blood; for ALANINE AMINOTRANSFERASE / ALBUMIN / ALKALINE PHOSPHATASE / ASPARTATE AMINOTRANSFERASE / BLOOD UREA NITROGEN / CARBON DIOXIDE / CHLORIDE / CHOLESTEROL / CREATINE PHOSPHOKINASE / CREATININE / GLUCOSE / LACTATE DEHYDROGENASE / LIPASE / PHOSPHORUS / POTASSIUM / SODIUM / TOTAL BILIRUBIN / TOTAL PROTEIN / URIC ACID: tissue Plasma
[1] = 0 mg/kg, 72 h, dose level Control, time 3 day
[2] = 0 mg/kg, 120 h, dose level Control, time 5 day
[3] = 2 mg/kg, 72 h, dose level Low, time 3 day

Structure (SMILES): C[C@]12C=CC(=O)C=C1CC[C@@H]1[C@@H]2[C@@H](O)C[C@@]2(C)[C@H]1CC[C@]2(O)C(=O)CO [PREDNISOLONE]
- ABSOLUTE BASOPHIL [1]: 0 CELLS/uL
- ABSOLUTE EOSINOPHIL [1]: 24 CELLS/uL
- ABSOLUTE LYMPHOCYTE [1]: 13105 CELLS/uL
- ABSOLUTE MONOCYTE [1]: 76 CELLS/uL
- ABSOLUTE SEGMENTED NEUTROPHIL [1]: 2145 CELLS/uL
- BASOPHIL [1]: 0%
- EOSINOPHIL [1]: 0.17%
- ERYTHROCYTE COUNT [1]: 5.81 x10E6/uL
- HEMATOCRIT [1]: 35.6%
- HEMOGLOBIN [1]: 13.72 G/DL
- LEUKOCYTE COUNT [1]: 15.35 x10E3/uL
- LYMPHOCYTE [1]: 85.5%
- MEAN CORPUSCULAR HEMOGLOBIN [1]: 23.62 pg
- MEAN CORPUSCULAR HEMOGLOBIN CONCENTRATION [1]: 38.55 G/DL
- MEAN CORPUSCULAR VOLUME [1]: 61.23 fL
- MONOCYTE [1]: 0.5%
- NEUTROPHIL [1]: 13.83%
- NUCLEATED RED BLOOD CELLS [1]: 0 /100WBC
- PLATELET COUNT [1]: 1189.83 x10E3/uL
- ALANINE AMINOTRANSFERASE [1]: 48.67 u/L
- ALBUMIN [1]: 4.27 G/DL
- ALKALINE PHOSPHATASE [1]: 335 u/L
- ASPARTATE AMINOTRANSFERASE [1]: 86.5 u/L
- BLOOD UREA NITROGEN [1]: 14.33 mg/dL
- CARBON DIOXIDE [1]: 29.17 mmol/L
- CHLORIDE [1]: 99.83 MEQ/L
- CHOLESTEROL [1]: 71.83 mg/dL
- CREATINE PHOSPHOKINASE [1]: 506.83 u/L
- CREATININE [1]: 0.18 mg/dL
- GLUCOSE [1]: 162.17 mg/dL
- LACTATE DEHYDROGENASE [1]: 264.5 u/L
- LIPASE [1]: 9.67 u/L
- PHOSPHORUS [1]: 11.92 mg/dL
- POTASSIUM [1]: 6.55 MEQ/L
- SODIUM [1]: 141.53 MEQ/L
- TOTAL BILIRUBIN [1]: 0.18 mg/dL
- TOTAL PROTEIN [1]: 5.87 G/DL
- URIC ACID [1]: 1.67 mg/dL
- ABSOLUTE BASOPHIL [2]: 0 CELLS/uL
- ABSOLUTE EOSINOPHIL [2]: 25.33 CELLS/uL
- ABSOLUTE LYMPHOCYTE [2]: 15680 CELLS/uL
- ABSOLUTE MONOCYTE [2]: 92.33 CELLS/uL
- ABSOLUTE SEGMENTED NEUTROPHIL [2]: 2102.33 CELLS/uL
- BASOPHIL [2]: 0%
- EOSINOPHIL [2]: 0.17%
- ERYTHROCYTE COUNT [2]: 6 x10E6/uL
- HEMATOCRIT [2]: 35.55%
- HEMOGLOBIN [2]: 14.12 G/DL
- LEUKOCYTE COUNT [2]: 17.9 x10E3/uL
- LYMPHOCYTE [2]: 87.33%
- MEAN CORPUSCULAR HEMOGLOBIN [2]: 23.65 pg
- MEAN CORPUSCULAR HEMOGLOBIN CONCENTRATION [2]: 39.77 G/DL
- MEAN CORPUSCULAR VOLUME [2]: 59.52 fL
- MONOCYTE [2]: 0.5%
- NEUTROPHIL [2]: 12%
- NUCLEATED RED BLOOD CELLS [2]: 0.17 /100WBC
- PLATELET COUNT [2]: 1325.67 x10E3/uL
- ALANINE AMINOTRANSFERASE [2]: 56.17 u/L
- ALBUMIN [2]: 4.23 G/DL
- ALKALINE PHOSPHATASE [2]: 371.5 u/L
- ASPARTATE AMINOTRANSFERASE [2]: 91 u/L
- BLOOD UREA NITROGEN [2]: 15.33 mg/dL
- CARBON DIOXIDE [2]: 27.67 mmol/L
- CHLORIDE [2]: 99.5 MEQ/L
- CHOLESTEROL [2]: 66.5 mg/dL
- CREATINE PHOSPHOKINASE [2]: 518.5 u/L
- CREATININE [2]: 0.18 mg/dL
- GLUCOSE [2]: 143.33 mg/dL
- LACTATE DEHYDROGENASE [2]: 238.83 u/L
- LIPASE [2]: 9.33 u/L
- PHOSPHORUS [2]: 10.68 mg/dL
- POTASSIUM [2]: 6.5 MEQ/L
- SODIUM [2]: 141.88 MEQ/L
- TOTAL BILIRUBIN [2]: 0.18 mg/dL
- TOTAL PROTEIN [2]: 6 G/DL
- URIC ACID [2]: 1.63 mg/dL
- ABSOLUTE BASOPHIL [3]: 0 CELLS/uL
- ABSOLUTE EOSINOPHIL [3]: 0 CELLS/uL
- ABSOLUTE LYMPHOCYTE [3]: 13282 CELLS/uL
- ABSOLUTE MONOCYTE [3]: 183.67 CELLS/uL
- ABSOLUTE SEGMENTED NEUTROPHIL [3]: 1434.33 CELLS/uL
- BASOPHIL [3]: 0%
- EOSINOPHIL [3]: 0%
- ERYTHROCYTE COUNT [3]: 5.89 x10E6/uL
- HEMATOCRIT [3]: 36.9%
- HEMOGLOBIN [3]: 14.23 G/DL
- LEUKOCYTE COUNT [3]: 14.9 x10E3/uL
- LYMPHOCYTE [3]: 88.67%
- MEAN CORPUSCULAR HEMOGLOBIN [3]: 24.17 pg
- MEAN CORPUSCULAR HEMOGLOBIN CONCENTRATION [3]: 38.57 G/DL
- MEAN CORPUSCULAR VOLUME [3]: 62.63 fL
- MONOCYTE [3]: 1%
- NEUTROPHIL [3]: 10.33%
- NUCLEATED RED BLOOD CELLS [3]: 0 /100WBC
- PLATELET COUNT [3]: 1283.33 x10E3/uL
- ALANINE AMINOTRANSFERASE [3]: 48.33 u/L
- ALBUMIN [3]: 4.37 G/DL
- ALKALINE PHOSPHATASE [3]: 335.33 u/L
- ASPARTATE AMINOTRANSFERASE [3]: 82.67 u/L
- BLOOD UREA NITROGEN [3]: 15.67 mg/dL
- CARBON DIOXIDE [3]: 25.33 mmol/L
- CHLORIDE [3]: 101.33 MEQ/L
- CHOLESTEROL [3]: 64.67 mg/dL
- CREATINE PHOSPHOKINASE [3]: 495.33 u/L
- CREATININE [3]: 0.15 mg/dL
- GLUCOSE [3]: 167.67 mg/dL
- LACTATE DEHYDROGENASE [3]: 139 u/L
- LIPASE [3]: 9.67 u/L
- PHOSPHORUS [3]: 12.63 mg/dL
- POTASSIUM [3]: 5.96 MEQ/L
- SODIUM [3]: 144.8 MEQ/L
- TOTAL BILIRUBIN [3]: 0.17 mg/dL
- TOTAL PROTEIN [3]: 6.1 G/DL
- URIC ACID [3]: 1.97 mg/dL
